The structures appear in SMILES notation.

One assay has as its target T1, MMP-8 (Homo sapiens, UniProt P22894).
T1 construct: catalytic domain (Met80-Gly242) of human neutrophil collagenase; made in house
In words: MMP inhibition enzyme assay (initial reaction rate, standard substrate DNP-Pro-Leu-Gly-Leu-Trp-Ala-D-Arg-NH2). Type of assay: biochemical. The note with it: 8 nM catalytic domain (Met80-Gly242) of human neutrophil collagenase; 10 microM substrate; pH 7.6; read-out: MMP-8 Inhib. [%] IC50. On the procedure:
(§1) In order to determine the inhibition of MMPs, for example MMP-8, the catalytic domain (isolation and purification see for example Schnierer, S., Kleine, T., Gote, T., Hillemann, A., Knäuper, V., Tschesche, H.,Biochem. Biophys. Res. Commun. (1993) 191, 319-326) is incubated with inhibitors having various concentrations. Subsequently, the initial reaction rate in the conversion of a standard substrate is measured in a manner analogous to Grams F. et al., FEBS 335 (1993) 76-80). Alternatively the percent inhibition will be determined at a distant inhibitor concentration.
(§2) The assays for other MMPs are performed in a analogous manner. • Assay buffer: 50 mM Tris/HCI pH 7.6 (Tris= Tris-(hydroxymethyl)-aminomethan) 100 mM NaCl/10 mM CaCl2-/5% MeOH (if necessary) • Enzyme: 8 nM catalytic domain (Met80-Gly242) of human neutrophil collagenase • Substrate: 10 microM DNP-Pro-Leu-Gly-Leu-Trp-Ala-D-Arg-NH2 • Total assay volume: 1 ml

A further assay has as its target MMP-9 (Homo sapiens, UniProt P14780). In words: MMP inhibition enzyme assay, performed in an analogous manner to MMP-8. Type of assay: biochemical. The settings on record: compound concentration 0.21 µM (100 ng/ml); read-out: MMP-9 Inhib. [%]. The protocol: as §1, §2

T1 sequence (P22894 100-262 limits assumed): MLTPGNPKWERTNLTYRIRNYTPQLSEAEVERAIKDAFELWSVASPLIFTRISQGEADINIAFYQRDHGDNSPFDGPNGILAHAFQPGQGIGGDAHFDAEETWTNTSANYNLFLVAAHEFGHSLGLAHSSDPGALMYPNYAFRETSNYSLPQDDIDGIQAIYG
Sequence of MMP-9 (P14780 94-707, species assumed): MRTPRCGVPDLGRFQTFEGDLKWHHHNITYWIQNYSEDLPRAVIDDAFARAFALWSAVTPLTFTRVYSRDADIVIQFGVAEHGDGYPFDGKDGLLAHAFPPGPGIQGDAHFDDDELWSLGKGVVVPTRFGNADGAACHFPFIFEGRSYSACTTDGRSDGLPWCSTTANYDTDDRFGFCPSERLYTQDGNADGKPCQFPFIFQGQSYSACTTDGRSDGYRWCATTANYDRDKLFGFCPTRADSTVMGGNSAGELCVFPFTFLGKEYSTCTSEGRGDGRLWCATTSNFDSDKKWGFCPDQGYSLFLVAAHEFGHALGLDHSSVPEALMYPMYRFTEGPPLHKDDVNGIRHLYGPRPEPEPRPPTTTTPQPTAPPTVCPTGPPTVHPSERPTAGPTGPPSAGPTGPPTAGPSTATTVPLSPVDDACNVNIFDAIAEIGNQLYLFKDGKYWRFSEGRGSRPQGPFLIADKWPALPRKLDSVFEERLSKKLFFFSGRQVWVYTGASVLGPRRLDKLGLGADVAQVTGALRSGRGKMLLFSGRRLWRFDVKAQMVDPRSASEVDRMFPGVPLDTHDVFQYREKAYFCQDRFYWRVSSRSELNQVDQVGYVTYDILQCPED

The IC50 is the point on the concentration scale where inhibition reaches its midpoint. Consider `O=C(C[C@H](NS(=O)(=O)c1ccc(-c2ccc(Cl)cc2)cc1)C(=O)O)OCc1ccccc1` [Example 2, L-N-(p-Chlorobiphenylsulfonyl)-aspartic acid-β-benzylester], for which, at MMP-8, the IC50 came out at 0.0487 µM. Also, the inhibition at 0.21 µM at MMP-9 was found to be 38%.
For `O=C(O)[C@H](CSCc1ccccc1)NS(=O)(=O)c1ccc(-c2ccc(Cl)cc2)cc1` [Example 1, N-(p-Chloro-biphenylsulfonyl)-S-benzyl-cysteine], the IC50 on MMP-8 stood at 0.0216 µM.

Source of the values: patent EP0967201A1, “Pharmaceutical agents containing sulfonamids as matrix metalloproteinase inhibitors” (Roche Diagnostics GmbH, priority 1998, dated 1999).
